Reference: the supplement of paper PMC11451515

Key:
Details in all cases: 48 h
NOMO1 [1] = experiment: cell viability relative to DMSO control; higher = less cytotoxic
Summary of the method: (§1)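 Library compounds in DMSO were pin-dosed into 1536-well plates (5 μl) holding NOMO1 or SEM (500 cells/well) or P12-Ichikawa (1000 cells/well) leukemia cells, across an 11-point threefold series of 47 μM to 0.79 nM. Each cell line had been adapted for at least four passages in each medium. CellTiter-Glo One luminescence was read after 48 h at 37°C. Viability is the per-plate percentage relative to DMSO wells, with cell-free wells as background.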

P12-Ichikawa [2] = experiment: as above
Summary of the method: as §1

SEM cells [3] = experiment: as above
Summary of the method: as §1

NOMO1 [4] = experiment: AUC of viability dose-response curve (% viability x log10 dose units); higher = less sensitive
Summary of the method: (§2)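 Seeding of medium-adapted leukemia cells was at 500 or 1000 cells/well in 1536-well plates, followed by 48 h at 37°C with library compounds in DMSO at 11 threefold doses from 47 μM to 0.79 nM. CellTiter-Glo One luminescence was normalised per plate to DMSO and cell-free wells and fitted as a four-parameter log-logistic function of log10 dose. Area under the curve was integrated by trapezoidal rule, with curves exceeding full viability scaled and curves failing quality control removed.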

P12-Ichikawa [5] = experiment: as above
Summary of the method: as §2

SEM cells [6] = experiment: as above
Summary of the method: as §2

C[C@@H](Cc1cc2c(c(C(N)=O)c1)N(CCCO)CC2)NCCOc1ccccc1OCC(F)(F)F
cell viability [%]
Details	NOMO1 [1]	P12-Ichikawa [2]	SEM cells [3]
HPLM + 10% dialyzed FBS, 0.000781 µM	94.5	91.9	86.8
HPLM + 10% dialyzed FBS, 0.00234 µM	99.7	115	85.3
HPLM + 10% dialyzed FBS, 0.00702 µM	101	101	76.7
HPLM + 10% dialyzed FBS, 0.0211 µM	120	116	82.9
HPLM + 10% dialyzed FBS, 0.0632 µM	107	113	99
HPLM + 10% dialyzed FBS, 0.19 µM	123	112	96.7
HPLM + 10% dialyzed FBS, 0.569 µM	122	119	95.5
HPLM + 10% dialyzed FBS, 1.71 µM	135	114	97.3
HPLM + 10% dialyzed FBS, 5.12 µM	111	112	101
HPLM + 10% dialyzed FBS, 15.4 µM	114	118	98.1
HPLM + 10% dialyzed FBS, 46.1 µM	113	110	88.7
RPMI 5 mM glucose + 10% FBS, 0.000781 µM	94.5	99.4	95.1
RPMI 5 mM glucose + 10% FBS, 0.00234 µM	105	111	111
RPMI 5 mM glucose + 10% FBS, 0.00702 µM	107	106	114
RPMI 5 mM glucose + 10% FBS, 0.0211 µM	106	130	112
RPMI 5 mM glucose + 10% FBS, 0.0632 µM	112	116	119
RPMI 5 mM glucose + 10% FBS, 0.19 µM	109	123	107
RPMI 5 mM glucose + 10% FBS, 0.569 µM	110	115	121
RPMI 5 mM glucose + 10% FBS, 1.71 µM	105	101	101
RPMI 5 mM glucose + 10% FBS, 5.12 µM	116	112	102
RPMI 5 mM glucose + 10% FBS, 15.4 µM	110	117	110
RPMI 5 mM glucose + 10% FBS, 46.1 µM	106	102	99.2
RPMI 5 mM glucose + 10% dialyzed FBS, 0.000781 µM	89.4	90.4	93.4
RPMI 5 mM glucose + 10% dialyzed FBS, 0.00234 µM	106	104	98.3
RPMI 5 mM glucose + 10% dialyzed FBS, 0.00702 µM	106	103	101
RPMI 5 mM glucose + 10% dialyzed FBS, 0.0211 µM	104	105	110
RPMI 5 mM glucose + 10% dialyzed FBS, 0.0632 µM	126	111	123
RPMI 5 mM glucose + 10% dialyzed FBS, 0.19 µM	115	109	118
RPMI 5 mM glucose + 10% dialyzed FBS, 0.569 µM	109	109	111
RPMI 5 mM glucose + 10% dialyzed FBS, 1.71 µM	121	110	142
RPMI 5 mM glucose + 10% dialyzed FBS, 5.12 µM	116	99.4	110
RPMI 5 mM glucose + 10% dialyzed FBS, 15.4 µM	105	109	110
RPMI 5 mM glucose + 10% dialyzed FBS, 46.1 µM	104	97.5	82.9

AUC of viability dose-response curve
Details	NOMO1 [4]	P12-Ichikawa [5]	SEM cells [6]
HPLM + 10% dialyzed FBS	457	472	438
RPMI 5 mM glucose + 10% FBS	458	472	465
RPMI 5 mM glucose + 10% dialyzed FBS	466	472	463

CCN1\C=C(C(O)=O)/C(=O)C2=C1C(=C(N3CCNC(C)C3)C(=C2)F)F (centres undefined)
cell viability [%]
Details	NOMO1 [1]	P12-Ichikawa [2]	SEM cells [3]
HPLM + 10% dialyzed FBS, 0.000781 µM	101	96.7	92.5
HPLM + 10% dialyzed FBS, 0.00234 µM	103	107	99
HPLM + 10% dialyzed FBS, 0.00702 µM	114	111	106
HPLM + 10% dialyzed FBS, 0.0211 µM	115	125	117
HPLM + 10% dialyzed FBS, 0.0632 µM	118	101	109
HPLM + 10% dialyzed FBS, 0.19 µM	121	109	95.3
HPLM + 10% dialyzed FBS, 0.569 µM	121	119	116
HPLM + 10% dialyzed FBS, 1.71 µM	129	115	110
HPLM + 10% dialyzed FBS, 5.12 µM	128	124	118
HPLM + 10% dialyzed FBS, 15.4 µM	120	118	97.3
HPLM + 10% dialyzed FBS, 46.1 µM	114	110	112
RPMI 5 mM glucose + 10% FBS, 0.000781 µM	114	87	99.8
RPMI 5 mM glucose + 10% FBS, 0.00234 µM	117	94	95
RPMI 5 mM glucose + 10% FBS, 0.00702 µM	102	110	111
RPMI 5 mM glucose + 10% FBS, 0.0211 µM	115	110	111
RPMI 5 mM glucose + 10% FBS, 0.0632 µM	121	109	110
RPMI 5 mM glucose + 10% FBS, 0.19 µM	107	110	100
RPMI 5 mM glucose + 10% FBS, 0.569 µM	122	114	108
RPMI 5 mM glucose + 10% FBS, 1.71 µM	116	113	110
RPMI 5 mM glucose + 10% FBS, 5.12 µM	123	107	112
RPMI 5 mM glucose + 10% FBS, 15.4 µM	116	124	107
RPMI 5 mM glucose + 10% FBS, 46.1 µM	111	116	96.4
RPMI 5 mM glucose + 10% dialyzed FBS, 0.000781 µM	103	104	93.4
RPMI 5 mM glucose + 10% dialyzed FBS, 0.00234 µM	112	112	105
RPMI 5 mM glucose + 10% dialyzed FBS, 0.00702 µM	104	110	116
RPMI 5 mM glucose + 10% dialyzed FBS, 0.0211 µM	106	113	119
RPMI 5 mM glucose + 10% dialyzed FBS, 0.0632 µM	118	107	133
RPMI 5 mM glucose + 10% dialyzed FBS, 0.19 µM	112	116	107
RPMI 5 mM glucose + 10% dialyzed FBS, 0.569 µM	111	117	125
RPMI 5 mM glucose + 10% dialyzed FBS, 1.71 µM	122	113	117
RPMI 5 mM glucose + 10% dialyzed FBS, 5.12 µM	113	124	102
RPMI 5 mM glucose + 10% dialyzed FBS, 15.4 µM	139	120	97
RPMI 5 mM glucose + 10% dialyzed FBS, 46.1 µM	98.3	112	119

AUC of viability dose-response curve
Details	NOMO1 [4]	P12-Ichikawa [5]	SEM cells [6]
HPLM + 10% dialyzed FBS	458	462	467
RPMI 5 mM glucose + 10% FBS	471	457	471
RPMI 5 mM glucose + 10% dialyzed FBS	452	461	469

COc1cccc(OC)c1-c1cc(C(=O)NC2(C(=O)O)C3CC4CC(C3)CC2C4)nn1-c1ccnc2cc(Cl)ccc12 (centres undefined)
cell viability [%]
Details	NOMO1 [1]	P12-Ichikawa [2]	SEM cells [3]
HPLM + 10% dialyzed FBS, 0.000781 µM	129	115	107
HPLM + 10% dialyzed FBS, 0.00234 µM	111	118	94.1
HPLM + 10% dialyzed FBS, 0.00702 µM	125	112	96.4
HPLM + 10% dialyzed FBS, 0.0211 µM	135	116	109
HPLM + 10% dialyzed FBS, 0.0632 µM	119	114	115
HPLM + 10% dialyzed FBS, 0.19 µM	123	109	112
HPLM + 10% dialyzed FBS, 0.569 µM	102	114	117
HPLM + 10% dialyzed FBS, 1.71 µM	118	113	102
HPLM + 10% dialyzed FBS, 5.12 µM	116	101	104
HPLM + 10% dialyzed FBS, 15.4 µM	111	94.7	97.8
HPLM + 10% dialyzed FBS, 46.1 µM	98.9	86.1	112
RPMI 5 mM glucose + 10% FBS, 0.000781 µM	102	113	89.7
RPMI 5 mM glucose + 10% FBS, 0.00234 µM	99.6	119	98
RPMI 5 mM glucose + 10% FBS, 0.00702 µM	97.9	126	106
RPMI 5 mM glucose + 10% FBS, 0.0211 µM	109	118	92.4
RPMI 5 mM glucose + 10% FBS, 0.0632 µM	99.7	119	107
RPMI 5 mM glucose + 10% FBS, 0.19 µM	100	99.4	98.4
RPMI 5 mM glucose + 10% FBS, 0.569 µM	104	126	104
RPMI 5 mM glucose + 10% FBS, 1.71 µM	97.3	110	110
RPMI 5 mM glucose + 10% FBS, 5.12 µM	104	115	117
RPMI 5 mM glucose + 10% FBS, 15.4 µM	107	112	92.6
RPMI 5 mM glucose + 10% FBS, 46.1 µM	90.8	97.5	79.2
RPMI 5 mM glucose + 10% dialyzed FBS, 0.000781 µM	104	113	95.2
RPMI 5 mM glucose + 10% dialyzed FBS, 0.00234 µM	116	118	118
RPMI 5 mM glucose + 10% dialyzed FBS, 0.00702 µM	108	119	109
RPMI 5 mM glucose + 10% dialyzed FBS, 0.0211 µM	109	114	126
RPMI 5 mM glucose + 10% dialyzed FBS, 0.0632 µM	113	117	96.3
RPMI 5 mM glucose + 10% dialyzed FBS, 0.19 µM	104	110	119
RPMI 5 mM glucose + 10% dialyzed FBS, 0.569 µM	101	101	117
RPMI 5 mM glucose + 10% dialyzed FBS, 1.71 µM	95.2	110	102
RPMI 5 mM glucose + 10% dialyzed FBS, 5.12 µM	108	107	116
RPMI 5 mM glucose + 10% dialyzed FBS, 15.4 µM	91	108	118
RPMI 5 mM glucose + 10% dialyzed FBS, 46.1 µM	105	99.9	113

AUC of viability dose-response curve
Details	NOMO1 [4]	P12-Ichikawa [5]	SEM cells [6]
HPLM + 10% dialyzed FBS	447	456	467
RPMI 5 mM glucose + 10% FBS	473	472	467
RPMI 5 mM glucose + 10% dialyzed FBS	455	454	461
